Results published in paper PMC11124525, “Pharmacokinetic–Pharmacodynamic Correlation Analysis of Rhodiola crenulata in Rats with Myocardial Ischemia” (Pharmaceuticals, 2024).
Where two headings read alike, the source gives them in different places.

How the values were obtained:
[1] = PK of five RC components in pituitrin-induced myocardial ischemia (MDG) rats after oral RC extract, HPLC-QQQ-MS/MS, DAS; assay type: in vivo, SD rats; conditions: SD, rat, in vivo, po, 2 g/kg
Method: (§1) The drug concentration in plasma was calculated using the standard curve, and the mean blood concentration was plotted against the time to obtain the mean blood concentration–time curve (Figure 4).
(§2) The rat model of MI was made with Pit. The rats were divided into a sham operation group (SG), sham operation administration group (SDG), model group (MG), and model administration group (MDG) (n = 6 for each group). The MI model was prepared via an intraperitoneal injection (a single time) of Pit in the MG and MDG, with a dosage of 20 U/kg and a volume of 10 mL/kg. At the same time, the rats in the SG and SDG groups were given the same volume of saline in the same way.
(§3) RC extract (2 g/kg, equivalent to human clinical equivalent dose) was given to rats via oral administration in SDG and MDG, and the same volume of normal saline was orally administered to the SG and MG. Rats were fasted for 12 h before the experiment. Blood was collected from the fundus venous plexus at 0, 5, 10, 15, 30, 45 min, 1, 2, 4, 6, 8, 12, and 24 h after in gavage, placed in a centrifuge tube impregnated with heparin sodium, centrifuged at 3500 rpm for 15 min, and then the plasma was collected and divided into two parts. One part was used for biochemical index determination and the other part was used to determine the content of pharmaceutical ingredients in vivo. After the experiment, the rats were sacrificed, and the hearts were placed in paraformaldehyde for histopathological analysis.
(§4) The plasma sample of 100 μL was accurately absorbed, 50 μL internal standard solution (Nimodipine, 500 ng/mL) was added, then 300 μL acetonitrile precipitated protein was added, vortex for 10 min, placed under ultrasound for 3 min, centrifuged at 13,000 rpm for 10 min, and then the supernatant was transferred to another centrifuge tube. It was then concentrated until dry with a rotary evaporator. The residue was redissolved with 100 μL 50% acetonitrile, swirled for 1 min, placed under ultrasonic for 3 min, centrifuged at 13,000 rpm for 10 min, and the supernatant was taken for analysis.
(§5) A validated HPLC-QQQ-MS/MS method was used for the determination of drug-derived components in plasma samples at different time points. The accompanying standard curve was substituted to calculate the content of the compounds to be measured, and then the PK parameters were calculated using DAS software (version 3.2.8), and the blood concentration–time curve was plotted using GraphPad Prism (version 8.0.2). PK behavior was compared between the sham operation and model group, and PK models were established, respectively.

[2] = tested on: AST; assay: PK-PD sigmoid-Emax model, PD index AST in MDG rats; assay type: in vivo, SD rats; set-up: unit not given beside the values
[3] = myocardial infarction induced by isoproterenol; cited from earlier work
[4] = tested on: HBDH; assay: PK-PD sigmoid-Emax model, PD index HBDH in MDG rats; assay type: in vivo, SD rats; set-up: unit not given beside the values
[5] = for Stability RE (%): rat plasma, n = 6
Method: A series concentration mixed reference solution with different concentrations was added to 100 μL plasma, and was treated according to the method under Section 4.6 to obtain the matrix standard curve sample. Samples with concentrations of 400, 100, and 10 ng/mL, respectively, were taken as quality control (QC) samples of high, medium, and low concentrations (HQC, MQC, LQC). The method was validated, including linearity, inter-day/intra-day precision, repeatability, stability, extraction recovery, and matrix effect, according to FDA bioanalytical method validation guidelines.

[6] = tested on: CK; assay: PK-PD sigmoid-Emax model, PD index CK in MDG rats; assay type: in vivo, SD rats; set-up: Emax: unit not given beside the values
[7] = tested on: LDH; assay: PK-PD sigmoid-Emax model, PD index LDH in MDG rats
From the text: Subsequently, we incorporated the PK and PD data to conduct PK-PD modeling through DAS.
Therefore, PK-PD correlation analysis was used in this study, linking dynamic concentration–time processes and effect–time profile relationships [20, 21, 22]. […] The model adopted in this study is the S-Emax model. In the equation, γ means the shape factor in the formula, affecting the slope and determining the steepness of the curve. Emax can provide the maximum response intensity, and ED50 is for evaluating the safety of the drug, which is understood as the amount of the drug that causes 50% of the maximum response intensity.
Plasma creatine kinase (CK), hydroxybutyrate dehydrogenase (HBDH), lactate dehydrogenase (LDH), and superoxide dismutase (SOD) activity was determined using an automatic biochemical analyzer.
The activity of the CK, HBDH, LDH, and SOD of plasma samples collected at different time points was determined using an automatic biochemical analyzer for PD index evaluation. […] Two compartmental methods were used, employing the drug and statistics, which was supplied by the Chinese Pharmacological Society. Then, the efficacy indicators were fitted in the PK-PD model.

[8] = tested on: SOD; assay: PK-PD sigmoid-Emax model, PD index SOD in MDG rats; assay type: in vivo, SD rats; set-up: Ke0: unit not given beside the values
[9] = PK of five RC components in sham operation administration (SDG, normal) rats after oral RC extract, HPLC-QQQ-MS/MS, DAS; assay type: in vivo, SD rats; conditions: SD, rat, in vivo, po, 2 g/kg
Method: as §1, §2, §3, §4, §5

## O=C(O)c1cc(O)c(O)c(O)c1 [Gallic Acid, gallic acid]
[1]
  AUC(0-inf): 664 ± 221 ng·h/mL
  AUC(0-t): 531 ± 60.9 ng·h/mL
  CL/F: 136 mL/min/kg
  Cmax: 130 ± 19.9 ng/mL
  MRT: 5.53 ± 0.59 h
  MRT inf: 13.6 ± 10.6 h
  Vd/F: 134 ± 68.9 L/kg
  half-life: 13.8 ± 10.9 h
[1]; Tmax
  Tmax: 0.92 ± 0.13 h
[1]; Tmax (approximate)
  Tmax: ~1 h
[2]
  Emax: 1375.057
  Ke0: 2.998
[3]
  CLZ/F in modeled rats vs normal rats: significantly decreased
  T1/2 and MRT in modeled rats vs normal rats: prolonged
[4]
  Emax: 3540.625
  Ke0: 0.439
[5]; 4 °C, 48 h, spiked 10 ng/mL
  Stability RE (%): 100.2%
[5]; 4 °C, 48 h, spiked 50 ng/mL
  Stability RE (%): 103.3%
[5]; 4 °C, 48 h, spiked 400 ng/mL
  Stability RE (%): 99.11%
[5]; three freeze–thaw cycles, spiked 10 ng/mL
  Stability RE (%): 98.58%
[5]; three freeze–thaw cycles, spiked 50 ng/mL
  Stability RE (%): 105.6%
[5]; three freeze–thaw cycles, spiked 400 ng/mL
  Stability RE (%): 90.26%
[5]; −80 °C, 10 days, spiked 10 ng/mL
  Stability RE (%): 99.77%
[5]; −80 °C, 10 days, spiked 400 ng/mL
  Stability RE (%): 96.65%
[5]; simulated sample storage, handling and analysis (48 h at 4 °C and 10 days in 3 freeze–thaw cycles)
  Stability in plasma samples (in words): stable
[6]
  Emax: 2290.745
  Ke0: 1.909
[7]
  Emax: 580.413
[8]
  Emax: 73.435
  Ke0: 0.022
[9]
  AUC(0-inf): 550 ± 169 ng·h/mL
  AUC(0-t): 475 ± 112 ng·h/mL
  CL/F: 165 mL/min/kg
  Cmax: 103 ± 16.2 ng/mL
  MRT: 4.32 ± 1.26 h
  MRT inf: 8.92 ± 5.98 h
  Tmax: 0.92 ± 0.13 h
  Vd/F: 116 ± 83.1 L/kg
  half-life: 10.2 ± 8.73 h
